Calls of active or inactive are those of the source. The calls are words filed in the database; no cut-off is given here.
Tests used:
[1] = tested on: Daboia russelii; assay: (§1) Protective activity against Daboia russellii venom-induced hemorrhage in intradermally dosed Swiss albino mouse at 100 mmol assessed as hemorhagic lesion by measuring minimal […] dose preincubated with venom for 1 hr followed by administration to mouse measured after 24 hrs (reference value: 5 ug); format: functional
[2] = (§2) Protective activity against Daboia russellii venom-induced hemorrhage in Swiss albino mouse at 100 mmol, iv assessed as hemorhagic lesion by measuring […] administered immediately after venom injection measured after 24 hrs (Rvb =5 ug); format: functional, Daboia russelii
[3] = (§3) Protective activity against Daboia russellii venom-induced defibrinogenation in iv dosed Swiss albino mouse assessed as venom level causing blood coagulation at 100 mmol preincubated with venom for 1 hr followed by administration to mouse relative to untreated; format: functional, Daboia russelii
[4] = tested on: Daboia russelii; assay: Protective activity against Daboia russellii venom-induced mortality in iv dosed Swiss albino mouse administered immediately after venom injection relative to untreated control; format: functional, organism-based
[5] = Protective activity against Daboia russellii venom-induced mortality by measuring venom LD50 in Swiss albino mouse at 100 mmol, iv preincubated with venom for 1 hr followed by administration to mouse measured after 24 hrs (reference value: 2.28 ug); format: functional, Daboia russelii
[6] = Protective activity against Daboia russellii venom-induced mortality in Swiss albino mouse at 100 mmol, iv preincubated with venom for 1 hr followed by administration to mouse measured after 24 hrs relative to untreated control; format: functional, Daboia russelii
[7] = (§4) Protective activity against Daboia russellii venom-induced mortality in Swiss albino mouse at 100 mmol, iv by measuring venom LD50 administered immediately after venom injection measured after 24 hrs (reference value: 2.28ug); format: functional, Daboia russelii
[8] = Protective activity against Daboia russellii venom-induced hemorrhage in Swiss albino mouse at 100 mmol, iv assessed as hemorhagic lesion administered immediately after venom injection measured after 24 hrs relative to untreated control; format: functional, Daboia russelii
[9] = tested on: Daboia russelii; assay: Protective activity against Daboia russellii venom-induced coagulation in goat plasma assessed as increase in plasma recalcification time at 20 mmol preincubated with venom for 1 hr followed by plasma addition; format: functional, cell-free
[10] = Protective activity against Daboia russellii venom-induced defibrinogenation in iv dosed Swiss albino mouse assessed as venom level causing blood coagulation at 100 mmol preincubated with venom for 1 hr followed by administration to mouse (reference value: 2.5 ug); format: functional, Daboia russelii
[11] = Protective activity against Daboia russellii venom-induced hemorrhage in intradermally dosed Swiss albino mouse at 100 mmol assessed as hemorhagic lesion preincubated with venom for 1 hr followed by administration to mouse measured after 24 hrs relative to untreated control; format: functional, Daboia russelii
[12] = Protective activity against Daboia russellii venom-induced mortality in iv dosed Swiss albino mouse administered 30 mins after venom injection relative to untreated control; format: functional, Daboia russelii
[13] = as §1; format: functional, Daboia russelii
[14] = tested on: Naja kaouthia; assay: Protective activity against Naja kaouthia venom-induced mortality in iv dosed Swiss albino mouse assessed as administered 30 to 60 mins after venom injection; format: functional, organism-based
[15] = Protective activity against Daboia russellii venom-induced defibrinogenation in iv dosed Swiss albino mouse assessed as venom level causing blood coagulation at 100 mmol administered immediately after venom injection (reference value: 2.5 ug); format: functional, Daboia russelii
[16] = Protective activity against Naja kaouthia venom-induced mortality in Swiss albino mouse at 100 mmol, iv preincubated with venom for 1 hr followed by administration to mouse measured after 24 hrs relative to untreated control; format: functional
[17] = (§5) Protective activity against Daboia russellii venom-induced defibrinogenation in iv dosed Swiss albino mouse assessed as blood coagulation at 100 mmol administered immediately after venom injection relative to untreated control; format: functional, Daboia russelii
[18] = Protective activity against Daboia russellii venom-induced mortality in Swiss albino mouse at 100 mmol, iv administered immediately after venom injection measured after 24 hrs relative to untreated control; format: functional, Daboia russelii
[19] = Protective activity against Naja kaouthia venom-induced mortality in Swiss albino mouse at 100 mmol, iv administered immediately after venom injection measured after 24 hrs relative to untreated control; format: functional
[20] = Protective activity against Naja kaouthia venom-induced mortality in Swiss albino mouse at 100 mmol, iv by measuring venom LD50 administered immediately after venom injection measured after 24 hrs (reference value: 2.82 ug); format: functional
[21] = Protective activity against Naja kaouthia venom-induced mortality in Swiss albino mouse at 100 mmol, iv by measuring venom LD50 preincubated with venom for 1 hr followed by administration to mouse measured after 24 hrs (reference value: 2.82 ug); format: functional
[22] = tested on: Daboia russelii
[23] = Lipophilicity, log P of compound; format: physicochemical; conditions: octanol/water
[24] = tested on: Daboia russelii; assay: as §4; format: functional
[25] = tested on: Naja kaouthia
[26] = tested on: Naja kaouthia; remark: listed apart in the source
Description: Protective activity against Naja kaouthia venom-induced mortality in Swiss albino mouse at 100 mmol, iv by measuring venom LD50 administered immediately after venom injection measured after 24 hrs (Rvb = 2.82 ug)

[27] = tested on: Daboia russelii; assay: as §2; format: functional
[28] = biological target: T1, Basic phospholipase A2 VRV-PL-VIIIa (Daboia russelii) (UniProt P59071); assay: Inhibition of Daboia russellii venom PLA2 activity assessed as decrease in coagulation time of egg yolk at 20 mmol preincubated with venom for 1 hr followed by egg yolk addition measured after 1 hr
T1 sequence (whole entry): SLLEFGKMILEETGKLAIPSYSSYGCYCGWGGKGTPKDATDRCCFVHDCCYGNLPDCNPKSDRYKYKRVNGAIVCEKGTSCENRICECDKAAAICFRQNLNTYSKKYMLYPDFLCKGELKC

[29] = Protective activity against Daboia russellii venom-induced mortality in iv dosed Swiss albino mouse administered 60 mins after venom injection relative to untreated control; format: functional, Daboia russelii
[30] = tested on: Daboia russelii; assay: as §3; format: functional
[31] = tested on: Daboia russelii; assay: as §5; format: functional
[32] = Protective activity against Daboia russellii venom-induced mortality by measuring venom LD50 in Swiss albino mouse at 12 mmol, iv preincubated with venom for 1 hr followed by administration to mouse measured after 24 hrs (reference value: 2.28 ug); format: functional, Daboia russelii
[33] = Protective activity against Daboia russellii venom-induced mortality in Swiss albino mouse at 12 mmol, iv by measuring venom LD50 administered immediately after venom injection measured after 24 hrs (reference value: 2.28ug); format: functional, Daboia russelii
[34] = Protective activity against Daboia russellii venom-induced hemorrhage in Swiss albino mouse at 12 mmol, iv assessed as hemorhagic lesion by measuring […] administered immediately after venom injection measured after 24 hrs (Rvb =5 ug); format: functional, Daboia russelii
[35] = tested on: Naja kaouthia; assay: Protective activity against Naja kaouthia venom-induced mortality in Swiss albino mouse at 12 mmol, iv by measuring venom LD50 administered immediately after venom injection measured after 24 hrs (reference value: 2.82 ug); format: functional, organism-based
[36] = Protective activity against Naja kaouthia venom-induced mortality in Swiss albino mouse at 12 mmol, iv by measuring venom LD50 preincubated with venom for 1 hr followed by administration to mouse measured after 24 hrs (reference value: 2.82 ug); format: functional
[37] = as §1, with “12” for “100”; format: functional, Daboia russelii

| Compound | MHC [2] [µg] | fold change (FC) [3] | Activity [4] | LD50 [5] [µg] | fold change (FC) [6] | LD50 [7] [µg] | fold change (FC) [8] | Activity [9] | Activity [10] [µg] | fold change (FC) [11] | MHC [13] [µg] | Activity [14] | Activity [15] [µg] | fold change (FC) [16] | fold change (FC) [17] | fold change (FC) [18] | fold change (FC) [19] | LD50 [20] [µg] | LD50 [21] [µg] | logP ([23]; read-out: logP) | further results |
| --- | --- | --- | --- | --- | --- | --- | --- | --- | --- | --- | --- | --- | --- | --- | --- | --- | --- | --- | --- | --- | --- |
| O=Cc1ccccc1O | 10 | – | – | – | – | – | – | – | – | – | – | – | – | – | – | – | – | – | – | – | MHC [1]: inactive |
| C=CCOc1ccc(C=O)c(O)c1 | 10 | 2 | Active | 22 | 9.8 | 150 | 2 | Active | 5 | 10 | 50 | inactive | 3.5 | 3.2 | 1.5 | 3.75 | 2 | 10 | 9 | – | Activity [12]: 40% |
| O=Cc1ccccc1 [BENZALDEHYDE] | – | – | – | – | – | – | – | – | – | – | – | – | – | – | – | – | – | – | – | 1.47 | LD50 [22]: inactive; LD50 [24]: inactive; MHC [1]: inactive; LD50 [25]: inactive; LD50 [26]: inactive; MHC [27]: inactive |
| COc1cccc(CO)c1O | 10 | 10 | Active | 25 | 11.2 | 150 | 2 | Active | 25 | 8 | 40 | inactive | 3.5 | 3.2 | 1.5 | 3.75 | 2 | 10 | 9 | – | Activity [12]: 40%; inhibition [28]: Active; Activity [29]: 10% |
| OCc1cccc(O)c1O | 10 | – | – | 18 | 8 | 100 | 2 | Active | 2.5 | 3 | 15 | inactive | 2.5 | 2.1 | – | 2.5 | 2 | 10 | 6 | – | fold change (FC) [30]: inactive; fold change (FC) [31]: inactive |
| O=[N+]([O-])c1ccc2c(c1)OCO2 | – | – | – | – | – | – | – | – | – | – | – | – | – | – | – | – | – | – | – | 1.47 | LD50 [22]: inactive; LD50 [24]: inactive; MHC [1]: inactive; LD50 [25]: inactive; LD50 [26]: inactive; MHC [27]: inactive |
| COc1ccc(CO)c(O)c1 | 5 | 10 | Active | 22 | 9.8 | 150 | 1 | Active | 25 | 6 | 30 | inactive | 3.5 | 3.2 | 1.5 | 3.75 | 2 | 10 | 9 | – | Activity [12]: 40%; Activity [29]: 10% |
| COc1cccc(C=O)c1O | 10 | 10 | Active | 25 | 11.2 | 150 | 2 | Active | 25 | 10 | 50 | inactive | 3.5 | 3.2 | 1.5 | 3.75 | 2 | 10 | 9 | – | logP [23]: 2.39; Activity [12]: 40%; Activity [29]: 10% |
| CC(=O)Oc1ccccc1C(=O)O [ASPIRIN] | – | – | – | – | – | – | – | – | – | – | – | – | – | – | – | – | – | – | – | 1.24 | LD50 [32]: 6.6 µg; LD50 [33]: 50 µg; MHC [34]: 10 µg; LD50 [35]: inactive; LD50 [36]: 3 µg; MHC [37]: 100 µg |
| CCCCOc1ccc(C=O)c(O)c1 | 10 | 2.4 | – | 18 | 8 | 150 | 2 | Active | 6 | 8 | 140 | inactive | 3.5 | 2.1 | 1.5 | 3.75 | 2 | 10 | 6 | – | – |
| O=Cc1ccc(O)cc1O | 5 | – | – | 6 | 2.6 | 100 | 1 | Active | 2.5 | 10 | 50 | inactive | 2.5 | 1 | – | 2.5 | 1.6 | 8 | 3 | 1.19 | fold change (FC) [30]: inactive; fold change (FC) [31]: inactive; Activity [29]: 10% |
| COc1ccc(C=O)c(O)c1 | 10 | 8.8 | Active | 22 | 9.8 | 150 | 2 | Active | 22 | 10 | 50 | inactive | 3.5 | 3.2 | 1.5 | 3.75 | 2 | 10 | 9 | 3.19 | Activity [12]: 40%; Activity [29]: 10% |
| CC(=O)Oc1ccc(C=O)c(O)c1 | – | – | – | – | – | – | – | – | – | – | – | – | – | – | – | – | – | – | – | 0.94 | LD50 [22]: inactive; LD50 [24]: inactive; MHC [1]: inactive; LD50 [25]: inactive; LD50 [26]: inactive; MHC [27]: inactive |

From ChEMBL document CHEMBL3785074, “Molecular modeling and snake venom phospholipase A2 inhibition by phenolic compounds: Structure-activity relationship” (Eur J Med Chem, 2016)
